How the values were obtained:
Settings in all cases: Compound concentration 1000.0 nM
[1] = system: Tyrosine-protein kinase ABL1 (Homo sapiens), P00519 [E255K]
[2] = system: Tyrosine-protein kinase ABL1 (Homo sapiens), P00519 [F317I]
[3] = system: Tyrosine-protein kinase ABL1 (Homo sapiens), P00519 [H396P]
[4] = target: Tyrosine-protein kinase ABL1 (Homo sapiens) (UniProt P00519)
[5] = target: RAC-alpha serine/threonine-protein kinase (Homo sapiens) (UniProt P31749)
[6] = target: Mitogen-activated protein kinase kinase kinase 5 (Homo sapiens) (UniProt Q99683)
[7] = target: Bone morphogenetic protein receptor type-1A (Homo sapiens) (UniProt P36894)
[8] = target: Bone morphogenetic protein receptor type-1B (Homo sapiens) (UniProt O00238)
Chain of Bone morphogenetic protein receptor type-1B (Homo sapiens) (O00238 whole entry): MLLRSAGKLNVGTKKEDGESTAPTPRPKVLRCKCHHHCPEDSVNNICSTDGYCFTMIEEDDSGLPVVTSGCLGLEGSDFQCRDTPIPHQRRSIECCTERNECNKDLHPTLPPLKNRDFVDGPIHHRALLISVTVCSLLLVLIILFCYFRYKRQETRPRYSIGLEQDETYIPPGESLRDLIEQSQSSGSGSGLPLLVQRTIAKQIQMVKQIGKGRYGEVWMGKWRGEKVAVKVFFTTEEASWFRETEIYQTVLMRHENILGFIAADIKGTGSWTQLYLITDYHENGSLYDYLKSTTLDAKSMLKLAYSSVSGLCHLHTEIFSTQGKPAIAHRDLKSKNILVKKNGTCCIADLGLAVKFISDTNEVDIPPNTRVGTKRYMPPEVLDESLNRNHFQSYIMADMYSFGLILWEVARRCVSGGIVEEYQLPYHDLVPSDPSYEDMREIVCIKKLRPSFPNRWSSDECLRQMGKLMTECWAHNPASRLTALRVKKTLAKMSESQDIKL

[9] = target: Serine/threonine-protein kinase B-raf (Homo sapiens) (UniProt P15056)
[10] = target: Calcium/calmodulin-dependent protein kinase type 1G (Homo sapiens) (UniProt Q96NX5)
[11] = target: Calcium/calmodulin-dependent protein kinase type II subunit beta (Homo sapiens) (UniProt Q13554)
[12] = target: Cyclin-dependent kinase 11A (Homo sapiens) (UniProt Q9UQ88)
[13] = target: Casein kinase I isoform delta (Homo sapiens) (UniProt P48730)
[14] = target: Discoidin domain-containing receptor 2 (Homo sapiens) (UniProt Q16832)
[15] = system: Epidermal growth factor receptor (Homo sapiens), P00533 [UNDEFINED MUTATION]
[16] = system: Epidermal growth factor receptor (Homo sapiens), P00533 [UNDEFINED MUTATION]; remark: listed apart in the source
[17] = system: Epidermal growth factor receptor (Homo sapiens), P00533 [T790M]
[18] = system: eIF-2-alpha kinase GCN2 (Homo sapiens), Q9P2K8 [S808G]
[19] = target: G protein-coupled receptor kinase 3 (Homo sapiens) (UniProt P35626)
Chain of G protein-coupled receptor kinase 3 (Homo sapiens) (P35626 whole entry): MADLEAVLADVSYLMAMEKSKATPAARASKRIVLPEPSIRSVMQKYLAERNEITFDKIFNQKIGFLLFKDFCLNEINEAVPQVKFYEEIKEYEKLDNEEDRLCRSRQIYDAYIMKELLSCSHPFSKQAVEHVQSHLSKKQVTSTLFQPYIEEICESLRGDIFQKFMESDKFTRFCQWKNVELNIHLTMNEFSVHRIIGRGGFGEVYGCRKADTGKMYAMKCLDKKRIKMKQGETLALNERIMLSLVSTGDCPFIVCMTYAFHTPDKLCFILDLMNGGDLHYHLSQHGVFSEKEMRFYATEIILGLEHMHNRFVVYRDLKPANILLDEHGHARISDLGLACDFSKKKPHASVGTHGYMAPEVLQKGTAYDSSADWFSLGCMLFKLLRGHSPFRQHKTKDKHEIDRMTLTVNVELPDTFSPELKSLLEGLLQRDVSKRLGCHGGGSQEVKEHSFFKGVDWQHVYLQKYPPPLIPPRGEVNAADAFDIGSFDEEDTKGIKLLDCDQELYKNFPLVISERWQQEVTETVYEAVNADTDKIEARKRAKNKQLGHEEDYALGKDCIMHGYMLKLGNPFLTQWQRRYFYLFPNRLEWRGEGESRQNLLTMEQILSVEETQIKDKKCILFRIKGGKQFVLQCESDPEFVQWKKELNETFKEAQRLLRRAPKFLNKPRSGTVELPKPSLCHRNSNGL

[20] = target: Homeodomain-interacting protein kinase 3 (Homo sapiens) (UniProt Q9H422)
[21] = target: Mitogen-activated protein kinase 10 (Homo sapiens) (UniProt P53779)
[22] = target: Tyrosine-protein kinase Lck (Homo sapiens) (UniProt P06239)
[23] = target: Mitogen-activated protein kinase kinase kinase 3 (Homo sapiens) (UniProt Q99759)
[24] = target: MAP kinase-interacting serine/threonine-protein kinase 1 (Homo sapiens) (UniProt Q9BUB5)
Chain of MAP kinase-interacting serine/threonine-protein kinase 1 (Homo sapiens) (Q9BUB5 whole entry, looked up): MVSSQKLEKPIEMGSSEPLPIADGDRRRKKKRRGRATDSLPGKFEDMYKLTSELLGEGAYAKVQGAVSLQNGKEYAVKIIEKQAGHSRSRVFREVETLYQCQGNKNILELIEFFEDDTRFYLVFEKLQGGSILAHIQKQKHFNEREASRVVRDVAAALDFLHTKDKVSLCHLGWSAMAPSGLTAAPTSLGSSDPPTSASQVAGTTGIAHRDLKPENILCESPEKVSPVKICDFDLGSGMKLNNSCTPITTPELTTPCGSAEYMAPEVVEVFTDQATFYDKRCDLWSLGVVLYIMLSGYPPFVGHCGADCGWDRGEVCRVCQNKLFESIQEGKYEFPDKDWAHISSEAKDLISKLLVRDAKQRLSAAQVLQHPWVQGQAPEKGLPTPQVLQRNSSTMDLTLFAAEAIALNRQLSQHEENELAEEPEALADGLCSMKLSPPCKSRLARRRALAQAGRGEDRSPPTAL

[25] = target: Serine/threonine-protein kinase 4 (Homo sapiens) (UniProt Q13043)
[26] = target: Serine/threonine-protein kinase Nek1 (Homo sapiens) (UniProt Q96PY6)
Chain of Serine/threonine-protein kinase Nek1 (Homo sapiens) (Q96PY6 whole entry): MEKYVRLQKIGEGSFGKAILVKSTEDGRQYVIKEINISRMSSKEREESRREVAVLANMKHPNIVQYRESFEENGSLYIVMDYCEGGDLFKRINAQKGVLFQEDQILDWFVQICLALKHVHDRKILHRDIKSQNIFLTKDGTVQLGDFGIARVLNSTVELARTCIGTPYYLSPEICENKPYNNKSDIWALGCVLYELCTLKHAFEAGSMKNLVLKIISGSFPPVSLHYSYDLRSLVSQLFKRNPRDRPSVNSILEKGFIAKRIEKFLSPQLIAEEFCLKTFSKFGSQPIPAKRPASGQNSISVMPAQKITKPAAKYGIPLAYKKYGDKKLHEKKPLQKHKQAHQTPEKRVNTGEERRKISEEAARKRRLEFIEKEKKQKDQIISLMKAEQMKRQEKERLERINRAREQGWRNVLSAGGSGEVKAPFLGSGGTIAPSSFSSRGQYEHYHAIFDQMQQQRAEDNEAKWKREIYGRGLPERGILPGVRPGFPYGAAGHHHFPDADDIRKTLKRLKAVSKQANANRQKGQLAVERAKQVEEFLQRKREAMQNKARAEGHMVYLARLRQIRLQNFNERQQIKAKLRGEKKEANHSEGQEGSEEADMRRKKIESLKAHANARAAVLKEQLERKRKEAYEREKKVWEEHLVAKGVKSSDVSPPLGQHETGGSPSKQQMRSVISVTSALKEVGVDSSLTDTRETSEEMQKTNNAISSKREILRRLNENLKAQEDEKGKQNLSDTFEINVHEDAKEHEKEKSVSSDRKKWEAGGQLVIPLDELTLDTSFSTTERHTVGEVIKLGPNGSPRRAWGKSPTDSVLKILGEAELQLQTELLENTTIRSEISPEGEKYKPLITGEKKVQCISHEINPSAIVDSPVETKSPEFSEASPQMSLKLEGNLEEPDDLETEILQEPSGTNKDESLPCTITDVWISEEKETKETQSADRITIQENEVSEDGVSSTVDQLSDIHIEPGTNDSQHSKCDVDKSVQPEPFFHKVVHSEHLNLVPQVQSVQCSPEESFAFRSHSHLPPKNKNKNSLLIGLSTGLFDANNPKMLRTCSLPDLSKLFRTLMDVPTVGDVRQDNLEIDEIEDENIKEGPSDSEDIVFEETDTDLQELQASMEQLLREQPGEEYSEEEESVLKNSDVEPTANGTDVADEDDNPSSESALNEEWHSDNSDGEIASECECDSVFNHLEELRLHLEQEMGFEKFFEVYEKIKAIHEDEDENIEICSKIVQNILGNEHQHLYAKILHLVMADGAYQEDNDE

[27] = target: Serine/threonine-protein kinase Nek2 (Homo sapiens) (UniProt P51955)
[28] = target: Serine/threonine-protein kinase NLK (Homo sapiens) (UniProt Q9UBE8)
[29] = target: Serine/threonine-protein kinase OSR1 (Homo sapiens) (UniProt O95747)
[30] = target: Serine/threonine-protein kinase PAK 6 (Homo sapiens) (UniProt Q9NQU5)
[31] = target: Cyclin-dependent kinase 17 (Homo sapiens) (UniProt Q00537)
[32] = target: Phosphatidylinositol 4-phosphate 3-kinase C2 domain-containing subunit beta (Homo sapiens) (UniProt O00750)
[33] = system: Phosphatidylinositol 4,5-bisphosphate 3-kinase catalytic subunit alpha isoform (Homo sapiens), P42336 [E545A]
[34] = system: Phosphatidylinositol 4,5-bisphosphate 3-kinase catalytic subunit alpha isoform (Homo sapiens), P42336 [Q546K]
[35] = target: Serine/threonine-protein kinase D1 (Homo sapiens) (UniProt Q15139)
[36] = system: Proto-oncogene tyrosine-protein kinase receptor Ret (Homo sapiens), P07949 [M918T]
Chain of Proto-oncogene tyrosine-protein kinase receptor Ret (Homo sapiens), P07949 [M918T] (P07949 whole entry M918T): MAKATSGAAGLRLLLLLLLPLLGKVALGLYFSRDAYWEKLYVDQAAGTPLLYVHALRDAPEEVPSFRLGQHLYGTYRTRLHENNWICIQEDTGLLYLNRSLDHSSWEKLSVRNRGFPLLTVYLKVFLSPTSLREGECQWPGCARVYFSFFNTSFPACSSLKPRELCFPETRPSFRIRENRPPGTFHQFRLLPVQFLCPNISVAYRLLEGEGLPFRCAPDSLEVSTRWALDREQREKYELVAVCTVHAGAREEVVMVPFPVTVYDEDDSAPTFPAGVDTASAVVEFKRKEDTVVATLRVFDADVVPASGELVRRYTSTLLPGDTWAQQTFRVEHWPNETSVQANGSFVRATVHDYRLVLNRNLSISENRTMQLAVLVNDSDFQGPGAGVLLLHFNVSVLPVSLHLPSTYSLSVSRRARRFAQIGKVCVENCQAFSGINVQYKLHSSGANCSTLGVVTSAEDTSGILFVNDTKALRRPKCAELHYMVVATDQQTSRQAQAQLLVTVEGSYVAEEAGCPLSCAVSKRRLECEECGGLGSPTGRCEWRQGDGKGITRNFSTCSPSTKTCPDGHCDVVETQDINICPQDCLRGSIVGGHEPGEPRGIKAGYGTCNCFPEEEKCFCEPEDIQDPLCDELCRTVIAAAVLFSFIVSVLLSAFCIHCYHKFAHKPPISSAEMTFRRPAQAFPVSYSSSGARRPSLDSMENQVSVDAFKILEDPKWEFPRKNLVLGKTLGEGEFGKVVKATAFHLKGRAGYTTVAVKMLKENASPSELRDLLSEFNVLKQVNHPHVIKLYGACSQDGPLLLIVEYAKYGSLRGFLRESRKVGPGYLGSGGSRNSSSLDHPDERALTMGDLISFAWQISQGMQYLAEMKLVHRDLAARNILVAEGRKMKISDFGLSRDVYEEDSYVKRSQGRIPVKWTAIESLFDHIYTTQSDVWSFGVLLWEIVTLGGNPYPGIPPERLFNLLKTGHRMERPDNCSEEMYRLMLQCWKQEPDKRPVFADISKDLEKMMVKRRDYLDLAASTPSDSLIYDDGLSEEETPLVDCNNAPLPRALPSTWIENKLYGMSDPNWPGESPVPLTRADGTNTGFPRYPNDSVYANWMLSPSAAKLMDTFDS

[37] = system: Proto-oncogene tyrosine-protein kinase receptor Ret (Homo sapiens), P07949 [V804L]
Chain of Proto-oncogene tyrosine-protein kinase receptor Ret (Homo sapiens), P07949 [V804L] (P07949 whole entry V804L): as the sequence (P07949 whole entry M918T) above, with V804L, T918M counted along it

[38] = target: Dual serine/threonine and tyrosine protein kinase (Homo sapiens) (UniProt Q6XUX3)
[39] = target: Uncharacterized serine/threonine-protein kinase SBK3 (Homo sapiens) (UniProt P0C264)
[40] = target: NUAK family SNF1-like kinase 2 (Homo sapiens) (UniProt Q9H093)
[41] = target: SNF-related serine/threonine-protein kinase (Homo sapiens) (UniProt Q9NRH2)
[42] = target: Serine/threonine-protein kinase tousled-like 1 (Homo sapiens) (UniProt Q9UKI8)
Chain of Serine/threonine-protein kinase tousled-like 1 (Homo sapiens) (Q9UKI8 whole entry): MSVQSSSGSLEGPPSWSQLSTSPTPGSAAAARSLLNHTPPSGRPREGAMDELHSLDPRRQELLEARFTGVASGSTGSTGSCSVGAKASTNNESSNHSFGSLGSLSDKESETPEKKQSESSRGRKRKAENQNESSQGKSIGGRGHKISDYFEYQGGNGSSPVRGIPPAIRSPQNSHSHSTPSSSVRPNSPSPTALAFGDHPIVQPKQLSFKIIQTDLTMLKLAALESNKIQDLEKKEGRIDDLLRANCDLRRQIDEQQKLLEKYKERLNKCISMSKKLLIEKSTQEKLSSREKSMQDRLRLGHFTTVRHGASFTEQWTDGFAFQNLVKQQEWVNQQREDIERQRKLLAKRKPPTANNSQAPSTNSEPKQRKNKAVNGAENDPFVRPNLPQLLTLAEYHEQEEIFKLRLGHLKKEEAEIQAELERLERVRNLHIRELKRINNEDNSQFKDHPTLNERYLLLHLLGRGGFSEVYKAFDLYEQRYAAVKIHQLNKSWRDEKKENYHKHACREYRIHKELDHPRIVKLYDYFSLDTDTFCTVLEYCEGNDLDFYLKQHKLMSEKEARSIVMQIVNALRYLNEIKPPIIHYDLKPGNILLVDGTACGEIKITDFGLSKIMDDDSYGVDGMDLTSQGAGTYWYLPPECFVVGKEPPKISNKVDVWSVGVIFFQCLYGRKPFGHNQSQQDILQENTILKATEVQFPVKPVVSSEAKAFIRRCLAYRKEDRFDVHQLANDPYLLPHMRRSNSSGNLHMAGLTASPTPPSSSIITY

[43] = target: Vascular endothelial growth factor receptor 2 (Homo sapiens) (UniProt P35968)
[44] = target: Serine/threonine-protein kinase 32A (Homo sapiens) (UniProt Q8WU08)

Measured: residual activity

O=C(NCc1ncc(C(F)(F)F)cc1Cl)c1ccc2c(c1)C1(CCS(=O)(=O)CC1)[C@H](C1CC1)N2S(=O)(=O)c1ccc(F)cc1 [BAY-784]
inactive: [1] 80% | [2] 83% | [3] 80% | [4] 92% | [5] 96% | [6] 100% | [7] 100% | [8] 93% | [9] 91% | [10] 98% | [11] 98% | [12] 100% | [13] 85% | [14] 78% | [15] 97% | [16] 100% | [17] 100% | [18] 88% | [19] 99% | [20] 82% | [21] 88% | [22] 100% | [23] 74% | [24] 74% | [25] 87% | [26] 100% | [27] 89% | [28] 100% | [29] 87% | [30] 100% | [31] 100% | [32] 100% | [33] 89% | [34] 76% | [35] 93% | [36] 96% | [37] 92% | [38] 76% | [39] 100% | [40] 81% | [41] 77% | [42] 96% | [43] 83% | [44] 100%

O=C(NCc1ncc(C(F)(F)F)cc1Cl)c1ccc2c(c1)C1(CCS(=O)(=O)CC1)[C@@H](C1CC1)N2S(=O)(=O)c1ccc(F)cc1 [BAY-786]
inactive: [1] 100% | [2] 80% | [3] 83% | [4] 89% | [5] 94% | [6] 100% | [7] 100% | [8] 85% | [9] 96% | [10] 100% | [11] 92% | [12] 100% | [13] 93% | [14] 67% | [15] 96% | [16] 85% | [17] 100% | [18] 100% | [19] 100% | [20] 81% | [21] 73% | [22] 100% | [23] 60% | [24] 78% | [25] 86% | [26] 96% | [27] 88% | [28] 89% | [29] 71% | [30] 100% | [31] 99% | [32] 90% | [33] 90% | [34] 72% | [35] 76% | [36] 100% | [37] 100% | [38] 78% | [39] 100% | [40] 75% | [41] 96% | [42] 100% | [43] 80% | [44] 99%
